Reference: US10759826B2, “15β-substituted estrone derivatives as selective inhibitors of 17β-hydroxysteroid-dehydrogenases, method of preparation and use thereof” (USTAV ORGANICKE CHEMIE A BIOCHEMIE AV CR, V.V.I., priority 2016, dated 2020)
Like-named read-outs stand apart in the source and are kept apart here.

Key:
[1] = target: T1, 17βHSD5 (Homo sapiens, UniProt P42330); details: cited from earlier work; for IC50: literature
T1 sequence (P42330 1-323): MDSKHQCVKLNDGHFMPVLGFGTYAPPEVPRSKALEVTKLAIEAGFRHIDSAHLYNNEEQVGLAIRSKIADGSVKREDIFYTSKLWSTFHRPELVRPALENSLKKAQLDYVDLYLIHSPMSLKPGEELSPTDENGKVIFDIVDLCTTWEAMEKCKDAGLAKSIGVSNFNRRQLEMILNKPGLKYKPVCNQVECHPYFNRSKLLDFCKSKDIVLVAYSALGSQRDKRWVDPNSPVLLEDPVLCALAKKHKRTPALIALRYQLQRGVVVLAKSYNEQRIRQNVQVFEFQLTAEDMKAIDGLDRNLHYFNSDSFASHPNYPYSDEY

[2] = target: luciferase (Photinus pyralis, UniProt P08659); assay: Luciferase activity in U2OS cell line constitutively expressing luciferase gene; format: cell-based; details: read-out: Luciferase activity IC50
Procedure: In order to distinguish between the specific, steroid hormone response elements-driven regulation of the luciferase expression and the possible effects of test compounds on the luciferase activity, compounds were tested in parallel experiment on a U2OS cell line constitutively expressing luciferase gene.
Luciferase activity was determined by a commercial kit Britelite plus a luciferase reporter gene assay reagent (Perkin Elmer, USA), 24 h after addition of compounds to cells. The intensity of luminescence was measured on an Envision multimode spectrophotometer (PerkinElmer).

[3] = tested on: U2OS cells; assay: Cell viability (ATP) of unmodified U2OS cells, parallel to reporter assay; format: cell-based, human
Procedure: To separate the antagonist activity of test compounds from the cytotoxic effect on U2OS cells (cell line derived from osteosarcoma), an experiment for determination of cell viability was performed in parallel with the reporter assay. Original, genetically unmodified U2OS cells were grown under the same conditions as the reporter cells. These cells were further treated and incubated with the compounds in a completely identical manner and for the same time as cells in the reporter assay. At the end of the experiment, the amount of ATP was determined using BriteLite luciferase homogeneous assay as a measure of cell viability. The data were then processed together with data from the reporter assays.

[4] = target: T2, human 17βHSD type 1 (Homo sapiens, UniProt P14061); assay: Inhibition of recombinant 17βHSD type 1, tritium-labeled substrate conversion; format: biochemical; details: for inhibition at 0.1 µM: 0.1 μmol · l^−1 test substance; for inhibition at 0.1 µM / inhibition at 1 µM: read-out: % of inhibition of human 17βHSD1; for inhibition at 1 µM: 1 μmol · l^−1 test substance; for IC50: read-out: 17βHSD1 IC50
T2 construct: made in house; expressing system suspended in buffer, not purified
T2 sequence (P14061 1-328): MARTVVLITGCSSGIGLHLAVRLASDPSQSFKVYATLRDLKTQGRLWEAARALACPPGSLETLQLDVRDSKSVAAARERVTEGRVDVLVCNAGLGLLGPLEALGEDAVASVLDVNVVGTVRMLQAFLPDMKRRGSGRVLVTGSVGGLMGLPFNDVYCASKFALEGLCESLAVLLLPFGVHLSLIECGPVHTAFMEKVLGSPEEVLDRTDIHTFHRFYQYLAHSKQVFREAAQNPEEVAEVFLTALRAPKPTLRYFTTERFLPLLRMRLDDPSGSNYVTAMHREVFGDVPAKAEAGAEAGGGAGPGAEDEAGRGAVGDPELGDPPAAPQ
Procedure: (§1) The inhibitory activity of the test substances was determined for individual isoenzymes from the 17βHSD family, specifically these were the types 1, 2, 3, 4, 5 and 7. Escherichia coli and mammalian cells expression systems were used for recombinant expression of individual isozymes of human 17βHSD. Only in the case of 17HSD5 the enzyme was partially purified and supernatant obtained by centrifugation of the bacterial lysate was used for testing. Systems expressing specific 17βHSD type were suspended in a reaction buffer and incubated with tritium-labeled substrates and respective cofactors at 37° C. in two parallel tests: the control arrangement (DMSO without the inhibitor) and the test arrangement (DMSO with the inhibitor). DMSO serves as a negative control in this case. After 20-30% of the substrate was converted by the activity of the enzyme to the product in a control test, both tests were terminated. Substrate and product from the test arrangement were isolated by SPE (solid phase extraction), and then separated by reverse phase HPLC. Substrate conversion was determined by integration of the signals of the substrate and product, and was expressed in %. For the purposes of the subsequent calculation of enzyme inhibition, the conversion of the control test was designated as 0% inhibition. All tests were performed in triplicates. IC50 values were subsequently determined by a standard method using the “One Ligand Binding” model of SigmaPlot kinetics module (Schustera et. al. J. Ster. Biochem. Mol. Biol. 2011, 125, 148; Möller et. al. Biioorg. Med. Chem. Lett. 2009, 19, 6740; Möller et. al. PLoS One, 2010, 5, 6, e10969).

[5] = target: T3, human 17βHSD type 5 (Homo sapiens, UniProt P42330); assay: Inhibition of recombinant 17βHSD type 5, tritium-labeled substrate conversion; format: biochemical; details: 1 μmol · l^−1 test substance
T3 construct: made in house; host or cells: bacteria (Escherichia coli); supernatant of the lysate
T3 sequence (P42330 1-323): T1 sequence (P42330 1-323)
Procedure: as §1

[6] = tested on: CEM; assay: MTT cytotoxicity assay, CEM; format: cell-based; details: Homo sapiens, CCRF-CEM
Source text: (§2) Compounds 5, 6, 7, 9, 14 and 15 were used for evaluation of antitumor activity. MTT cytotoxicity assay was used in vitro on cell lines derived from normal tissues and from tumors. Specifically, these were the K562 line (human myeloid leukemia), K562-Tax (human myeloid leukemia resistant to taxol and overexpressing PgP protein for multidrug resistance), CEM (T-lymphoblastic leukemia), CEM-DNR bulk (T-lymphoblastic leukemia resistant doxorubicin, lacking the expression of the target gene for inhibitors of topoisomerase II alpha), A549 line (human lung adenocarcinoma), HCT116p53 wt (human colon cancer), HCT116p53−/− (human colon cancer, mutant p53), U2OS line of human osteosarcoma and two fibroblast lines MRC5 and BJ as examples of non-tumor cells. Expression characteristics, profiles of susceptibility to classical antitumor drugs and methodology of the MTT cytotoxicity assay were repeatedly published (e.g. Noskova et al. Neoplasma 2002, 49, 418; S̆arek et. al. J. Med. Chem. 2003, 46, 25, 5402).

[7] = tested on: CEM-DNR-bulk; assay: MTT cytotoxicity assay, CEM-DNR-bulk; format: cell-based
Source text: as §2

[8] = tested on: K562; assay: MTT cytotoxicity assay, K562; format: cell-based; details: Homo sapiens
Source text: as §2

[9] = tested on: K562-Tax; assay: MTT cytotoxicity assay, K562-Tax; format: cell-based; details: Homo sapiens
Source text: as §2

[10] = tested on: A549; assay: MTT cytotoxicity assay, A549; format: cell-based; details: Homo sapiens
Source text: as §2

[11] = tested on: HCT116p53 wt; assay: MTT cytotoxicity assay, HCT116p53 wt; format: cell-based; details: Homo sapiens
Source text: as §2

[12] = tested on: HCT116p53-/-; assay: MTT cytotoxicity assay, HCT116p53-/-; format: cell-based; details: Homo sapiens
Source text: as §2

[13] = tested on: U2OS; assay: MTT cytotoxicity assay, U2OS; format: cell-based; details: Homo sapiens
Source text: as §2

[14] = tested on: BJ; assay: MTT cytotoxicity assay, BJ fibroblasts; format: cell-based; details: Homo sapiens, non-tumor fibroblasts
Source text: as §2

[15] = tested on: MRCS; assay: MTT cytotoxicity assay, MRC5 fibroblasts; format: cell-based; details: Homo sapiens, Fibroblast, non-tumor fibroblasts
Source text: as §2

[16] = target: T4, human 17βHSD1 (Homo sapiens, UniProt P14061); assay: 17βHSD inhibition in CHO cells transfected with human 17βHSD1, E1 in supernatant; format: cell-based; parameters: expressed in transfected cells; details: 10 μmol·l^−1
T4 sequence (P14061 1-328): T2 sequence (P14061 1-328)
Procedure: (§3) For this experiment, non-cytotoxic concentrations of estrone derivative (10 μmol·l^−1) were used. E1 levels were determined by an immuno-enzymatic assay.

[17] = target: T4, human 17βHSD1; assay: 17βHSD inhibition in MCF-7 cells transfected with human 17βHSD1, E1 in supernatant; format: cell-based; parameters: expressed in transfected cells; host or cells: MCF-7; details: 10 μmol·l^−1
Procedure: as §3

[18] = target: T5, estrogen receptor α (ERα) (Homo sapiens, UniProt P03372); assay: ERα luciferase reporter assay in U2OS cells; format: cell-based; details: testing range 10 μmol·l^−1 to 1 nmol·l^−1
T5 construct: expressed in transfected cells
T5 sequence (P03372 1-595): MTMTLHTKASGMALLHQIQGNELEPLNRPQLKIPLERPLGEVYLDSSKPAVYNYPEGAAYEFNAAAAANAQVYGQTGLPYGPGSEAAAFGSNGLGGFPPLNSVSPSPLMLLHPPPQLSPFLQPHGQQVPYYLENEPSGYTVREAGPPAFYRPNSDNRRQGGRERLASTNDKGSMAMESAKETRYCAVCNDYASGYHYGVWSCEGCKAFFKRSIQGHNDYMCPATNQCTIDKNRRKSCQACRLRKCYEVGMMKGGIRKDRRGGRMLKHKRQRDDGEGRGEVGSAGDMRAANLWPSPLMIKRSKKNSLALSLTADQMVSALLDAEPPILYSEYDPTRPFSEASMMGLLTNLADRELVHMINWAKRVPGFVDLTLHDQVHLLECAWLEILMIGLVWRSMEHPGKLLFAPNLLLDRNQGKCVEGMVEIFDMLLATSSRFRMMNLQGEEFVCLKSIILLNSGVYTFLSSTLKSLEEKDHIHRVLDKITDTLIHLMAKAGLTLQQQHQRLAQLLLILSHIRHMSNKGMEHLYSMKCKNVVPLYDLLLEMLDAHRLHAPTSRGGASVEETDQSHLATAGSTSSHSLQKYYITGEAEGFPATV

Row | Compound | inhibition at 0.1 µM [4] | inhibition at 1 µM [4] | IC50 [4] | % of inhibition of human 17βHSD5 [5] | IC50 [6] | IC50 [7] | IC50 [8] | IC50 [9] | IC50 [10] | IC50 [11] | IC50 [12] | IC50 [13] | IC50 [14] | IC50 [15] | melting point | E1 in supernatant, CHO ([16]; 8 hr.) | E1 in supernatant, CHO ([16]; 24 hr.) | E1 in supernatant, MCF-7 ([17]; 8 hr.) | E1 in supernatant, MCF-7 ([17]; 24 hr.) | further results
1 | 3-deoxyestradiol with C-17-dimethyl-spiro-δ-lactone |  |  |  |  |  |  |  |  |  |  |  |  |  |  |  |  |  |  |  | IC50 [1]: 0.0029 µM
2 | 4-hydroxytamoxifen [Compound 4-OHT, reference compound] |  |  |  |  |  |  |  |  |  |  |  |  |  |  |  |  |  |  |  | IC50 [2]: 10.2 µM; IC50 [3]: 12 µM
3 | C[C@]12CC[C@@H]3c4ccc(O)cc4CC[C@H]3[C@@H]1[C@H](CCc1ccc(F)cc1)CC2=O [Compound 5, 15β-(4-Fluorophenethyl)-3-hydroxy-estra-1,3,5(10)-trien-17-one] | 72% | 92% | 0.055 µM | 70% | 25.2 µM | 28.2 µM | 25.2 µM | 19.3 µM | 35.8 µM | 29.2 µM | 30.5 µM | 30.4 µM | 24.3 µM | 18.4 µM | 164 °C | 3194 pg/mL | 1576 pg/mL | 3373 pg/mL | 2236 pg/mL | 
4 | C[C@]12CC[C@@H]3c4ccc(O)cc4CC[C@H]3[C@@H]1[C@H](CCc1ccc(Cl)cc1)CC2=O [Compound 6, 15β-(4-Chlorophenethyl)-3-hydroxy-estra-1,3,5(10)-trien-17-one] | 90% | 97% | 0.009 µM | 90% | 16.3 µM | 24.6 µM | 26.9 µM | 13.2 µM | 35.8 µM | 29.3 µM | 30.8 µM | 27.9 µM | 28.8 µM | 21 µM | 168 °C | 4137 pg/mL | 1804 pg/mL | 4251 pg/mL | 3323 pg/mL | 
5 | COC(=O)c1ccc(CC[C@@H]2CC(=O)[C@@]3(C)CC[C@@H]4c5ccc(O)cc5CC[C@H]4[C@H]23)cc1 [Compound 7, Methyl 4-(2-(3-hydroxy-estra-1,3,5(10)-trien-17-on-15β-yl)ethyl)benzoate] | 84% | 99% | 0.016 µM | 63% | 25.6 µM | 32.8 µM | > 50 µM | 12.5 µM | > 50 µM | > 50 µM | > 50 µM | > 50 µM | > 50 µM | > 50 µM | 139 °C | 2101 pg/mL | 1476 pg/mL | 1921 pg/mL | 1839 pg/mL | ER antagonism in words [18]: ER antagonist
6 | Cc1ccc(CC[C@@H]2CC(=O)[C@@]3(C)CC[C@@H]4c5ccc(O)cc5CC[C@H]4[C@H]23)cc1 [Compound 15, 3-Hydroxy-15β-(4-methylphenethyl)-estra-1,3,5(10)-trien-17-one] | 87% | 100% | 0.008 µM | 86% | 21.7 µM | 24.1 µM | 23.8 µM | 13.8 µM | 28.2 µM | 28.3 µM | 29.4 µM | 28.9 µM | 27.9 µM | 19.6 µM | 159 °C | 750 pg/mL | 554 pg/mL | 719 pg/mL | 948 pg/mL | 
7 | CC1(C)CCC2(CCC3C4CCc5cc(C(N)=O)ccc5C4CCC32C)OC1=O [EM1404, 3-carboxamido-1,3,5-(10)-estratrien-17(R)-spiro-2-(5,5-dimethyl-6-oxo)tetra-hydro-pyran] |  |  |  |  |  |  |  |  |  |  |  |  |  |  |  |  |  |  |  | Ki ([1]; Qiu et al. 2007, WO9946279): 0.0069 µM; IC50 [1]: 0.0032 µM
8 | CC#C[C@]1(O)CC[C@H]2[C@@H]3CCC4=CC(=O)CCC4=C3[C@@H](c3ccc(N(C)C)cc3)C[C@@]21C [RU486, reference compound] |  |  |  |  |  |  |  |  |  |  |  |  |  |  |  |  |  |  |  | IC50 [2]: 17.9 µM; IC50 ([3]; Homo sapiens): 47.7 µM
